Values quoted from earlier work in patent publication US6506055B1, “Method of reducing dentin sensitivity and compositions therefor” (MCG Research Institute, priority 1999, dated 2003).

Conditions: 3% w/v applied to dentin; both in vitro and in vivo

For `O=C([O-])C(=O)O.[K+]` [monopotassium-monohydrogen oxalate], which “Hydraulic conductance of dentin” value is on record?
The value was “reduced”.
